US20250223268A1, “4-Methylsulfonylbenzamide Compound, Preparation Method, Herbicidal Composition And Use” (Jiangsu Flag Chemical Industry Co., Ltd., priority 2022, published 2025)

Assays:
Assay in all cases: Greenhouse herbicidal activity assay, post-emergence
Format in all cases: in vivo
Cyperus iria = settings: Post-emergence test, rate 150 g a.i./hm^2, grade by fresh weight inhibition rate; for pest or weed control at 150 g/ha: Cyperus iria, read-out: Control efficacy grade, Cyperus iria
Method in brief: (§1)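 Letter grades (A: ≥80% to 100%; C: ≥40% to <60%; E: <20%) express fresh weight inhibition recorded 14-21 days post-spray. Weeds were treated on the leaves once they reached 3-6 leaves in chamber-grown pots, allowed to dry naturally, then kept in the chamber.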

Digitaria sanguinalis = settings: Post-emergence test, rate 150 g a.i./hm^2, grade by fresh weight inhibition rate; for pest or weed control at 150 g/ha: Digitaria sanguinalis, read-out: Control efficacy grade, Digitaria sanguinalis
Method in brief: as §1

Echinochloa crusgalli = settings: Post-emergence test, rate 150 g a.i./hm^2, grade by fresh weight inhibition rate; for pest or weed control at 150 g/ha: Echinochloa crus-galli, read-out: Control efficacy grade, Echinochloa crusgalli
Method in brief: as §1

Eclipta prostrata = settings: Post-emergence test, rate 150 g a.i./hm^2, grade by fresh weight inhibition rate; for pest or weed control at 150 g/ha: Eclipta prostrata, read-out: Control efficacy grade, Eclipta prostrata
Method in brief: as §1

Leptochloa chinensis = settings: Post-emergence test, rate 150 g a.i./hm^2, grade by fresh weight inhibition rate; for pest or weed control at 150 g/ha: Dinebra chinensis, read-out: Control efficacy grade, Leptochloa chinensis
Method in brief: as §1

Structure (SMILES) | Control efficacy grade, Cyperus iria (Cyperus iria) | Control efficacy grade, Digitaria sanguinalis (Digitaria sanguinalis) | Control efficacy grade, Echinochloa crusgalli (Echinochloa crusgalli) | Control efficacy grade, Eclipta prostrata (Eclipta prostrata) | Control efficacy grade, Leptochloa chinensis (Leptochloa chinensis) | pest or weed control at 150 g/ha (Cyperus iria) [%] | pest or weed control at 150 g/ha (Digitaria sanguinalis) [%] | pest or weed control at 150 g/ha (Echinochloa crusgalli) [%] | pest or weed control at 150 g/ha (Eclipta prostrata) [%] | pest or weed control at 150 g/ha (Leptochloa chinensis) [%]
Cn1ncnc1NC(=O)c1ccc(S(C)(=O)=O)c([S+]([O-])CC2CC2)c1Cl (single isomer, unassigned) [Compound 2-30] | A (Fresh weight inhibition rate≥80% to 100%) | A (Fresh weight inhibition rate≥80% to 100%) | A (Fresh weight inhibition rate≥80% to 100%) | A (Fresh weight inhibition rate≥80% to 100%) | A (Fresh weight inhibition rate≥80% to 100%) | – | – | – | – | –
CCC(C)S(=O)(=O)c1c(S(C)(=O)=O)ccc(C(=O)Nc2nnc(C)o2)c1Cl (single isomer, unassigned) [Compound 3-25] | A (Fresh weight inhibition rate≥80% to 100%) | A (Fresh weight inhibition rate≥80% to 100%) | A (Fresh weight inhibition rate≥80% to 100%) | A (Fresh weight inhibition rate≥80% to 100%) | A (Fresh weight inhibition rate≥80% to 100%) | – | – | – | – | –
CCC(C)Sc1c(S(C)(=O)=O)ccc(C(=O)Nc2nnco2)c1Cl (single isomer, unassigned) [Compound 3-283] | A (Fresh weight inhibition rate≥80% to 100%) | A (Fresh weight inhibition rate≥80% to 100%) | A (Fresh weight inhibition rate≥80% to 100%) | A (Fresh weight inhibition rate≥80% to 100%) | A (Fresh weight inhibition rate≥80% to 100%) | – | – | – | – | –
CC(C)[S+]([O-])c1c(S(C)(=O)=O)ccc(C(=O)Nc2nnc(C3CC3)o2)c1Cl (single isomer, unassigned) [Compound 3-622] | A (Fresh weight inhibition rate≥80% to 100%) | A (Fresh weight inhibition rate≥80% to 100%) | A (Fresh weight inhibition rate≥80% to 100%) | A (Fresh weight inhibition rate≥80% to 100%) | A (Fresh weight inhibition rate≥80% to 100%) | – | – | – | – | –
CC(C)[S+]([O-])c1c(S(C)(=O)=O)ccc(C(=O)Nc2nnc(C3CC3)o2)c1Cl (single isomer, unassigned) [Compound 3-623] | A (Fresh weight inhibition rate≥80% to 100%) | A (Fresh weight inhibition rate≥80% to 100%) | A (Fresh weight inhibition rate≥80% to 100%) | A (Fresh weight inhibition rate≥80% to 100%) | A (Fresh weight inhibition rate≥80% to 100%) | – | – | – | – | –
CCCSc1c(S(C)(=O)=O)ccc(C(=O)Nc2nnnn2C)c1Cl [Compound 1-1, 2-chloro-N-(1-methyl-1H-tetrazol-5-yl)-4-(methylsulfonyl)-3-(propylthio)benzamide] | – | – | – | – | – | 80 to 100 | 80 to 100 | 80 to 100 | 80 to 100 | 80 to 100
CC(C)Sc1c(S(C)(=O)=O)ccc(C(=O)Nc2nnnn2C)c1Cl [Compound 1-6] | A (Fresh weight inhibition rate≥80% to 100%) | A (Fresh weight inhibition rate≥80% to 100%) | A (Fresh weight inhibition rate≥80% to 100%) | A (Fresh weight inhibition rate≥80% to 100%) | A (Fresh weight inhibition rate≥80% to 100%) | – | – | – | – | –
CCCCSc1c(S(C)(=O)=O)ccc(C(=O)Nc2nnnn2C)c1Cl [Compound 1-11] | A (Fresh weight inhibition rate≥80% to 100%) | A (Fresh weight inhibition rate≥80% to 100%) | A (Fresh weight inhibition rate≥80% to 100%) | A (Fresh weight inhibition rate≥80% to 100%) | A (Fresh weight inhibition rate≥80% to 100%) | – | – | – | – | –
Cn1nnnc1NC(=O)c1ccc(S(C)(=O)=O)c(SCC2CC2)c1Cl [Compound 1-27] | A (Fresh weight inhibition rate≥80% to 100%) | A (Fresh weight inhibition rate≥80% to 100%) | A (Fresh weight inhibition rate≥80% to 100%) | A (Fresh weight inhibition rate≥80% to 100%) | A (Fresh weight inhibition rate≥80% to 100%) | – | – | – | – | –
Cn1nnnc1NC(=O)c1ccc(S(C)(=O)=O)c(SC2CC2)c1Cl [Compound 1-32] | A (Fresh weight inhibition rate≥80% to 100%) | A (Fresh weight inhibition rate≥80% to 100%) | A (Fresh weight inhibition rate≥80% to 100%) | A (Fresh weight inhibition rate≥80% to 100%) | A (Fresh weight inhibition rate≥80% to 100%) | – | – | – | – | –
Cn1nnnc1NC(=O)c1ccc(S(C)(=O)=O)c(SCC(F)(F)F)c1Cl [Compound 1-52] | A (Fresh weight inhibition rate≥80% to 100%) | A (Fresh weight inhibition rate≥80% to 100%) | A (Fresh weight inhibition rate≥80% to 100%) | A (Fresh weight inhibition rate≥80% to 100%) | A (Fresh weight inhibition rate≥80% to 100%) | – | – | – | – | –
Cn1nnnc1NC(=O)c1ccc(S(C)(=O)=O)c(S(=O)(=O)CC(F)(F)F)c1Cl [Compound 1-56] | A (Fresh weight inhibition rate≥80% to 100%) | A (Fresh weight inhibition rate≥80% to 100%) | A (Fresh weight inhibition rate≥80% to 100%) | A (Fresh weight inhibition rate≥80% to 100%) | A (Fresh weight inhibition rate≥80% to 100%) | – | – | – | – | –
C=CCSc1c(S(C)(=O)=O)ccc(C(=O)Nc2nnnn2C)c1Cl [Compound 1-67] | A (Fresh weight inhibition rate≥80% to 100%) | A (Fresh weight inhibition rate≥80% to 100%) | A (Fresh weight inhibition rate≥80% to 100%) | A (Fresh weight inhibition rate≥80% to 100%) | A (Fresh weight inhibition rate≥80% to 100%) | – | – | – | – | –
CCn1nnnc1NC(=O)c1ccc(S(C)(=O)=O)c([S+]([O-])C(C)C)c1Cl (stereo not drawn) [Compound 1-93, 2-chloro-N-(1-ethyl-1H-tetrazol-5-yl)-3-(isopropylsulfinyl)-4-(methylsulfonyl)benzamide] | – | – | – | – | – | 80 to 100 | 80 to 100 | 80 to 100 | 80 to 100 | 80 to 100
CCCSc1c(S(C)(=O)=O)ccc(C(=O)Nc2ncnn2C)c1Cl [Compound 2-1] | A (Fresh weight inhibition rate≥80% to 100%) | A (Fresh weight inhibition rate≥80% to 100%) | A (Fresh weight inhibition rate≥80% to 100%) | A (Fresh weight inhibition rate≥80% to 100%) | A (Fresh weight inhibition rate≥80% to 100%) | – | – | – | – | –
